# Measurements as given in patent US20250250257A1, “NOVEL CRYSTALLINE FORMS” (Assembly Biosciences, Inc., priority 2021, published 2025).
# How the values were obtained:
# [1] = Competitive slurry studies, solid form checked by XRPD (thermodynamic stability of forms); assay type: physicochemical
# Protocol: Competitive slurry studies with Type 1 and the material produced from manufacture (Type 1 and 8 mixture) were performed at 25 and 50° C. in THF, EtOH and EtOAc. The solid form was checked by XRPD on day 3 and day 7.
# [2] = DVS (water sorption, hygroscopicity, form change post-DVS); assay type: physicochemical
structure (smiles),measurement,setting,value
"Cn1cnc([C@@H]2C[C@@H]3C[C@@](O)(c4cc(OCC(C)(C)O)nn4C)C[C@@H]3C2)c1C(=O)Nc1ccc(F)c(Cl)c1 [Type 8, N-(3-chloro-4-fluorophenyl)-4-((2s,3aR,5r,6aS)-5-hydroxy-5-(3-(2-hydroxy-2-methylpropoxy)-1-methyl-1H-pyrazol-5-yl)octahydropentalen-2-yl)-1-methyl-1H-imidazole-5-carboxamide]",thermodynamic stability among all forms discovered,[1],the most thermodynamically stable form discovered to date
same,relative thermodynamic stability of the form,"[1]; at 25 and 50° C., versus Type 1",the more thermodynamically stable form
same,water update at 80% RH (DVS),[2]; 80% RH,0.1%
same,form change post-DVS (XRPD),[2]; after DVS (desorption and resorption),No change in crystalline form
same,hygroscopicity (from DVS),[2]; based on water sorption at 80% RH,non-hygroscopic
